Key:
Experiment in all cases: KINOMEscan kinase profiling
Type in all cases: binding
AURKB = target: T1, AURKB (Homo sapiens, UniProt Q96GD4); conditions: read-out: %Inhibition by 10 μM SPA70
T1 construct: purchased DiscoverX (Ambit Biosciences) KINOMEscan
In short: (§1)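 KINOMEscan profiling followed a published protocol. Kinases whose inhibition exceeded a set cut-off were then tested in a dilution series beginning at 30 µM.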

BIKE = target: T2, BIKE (Homo sapiens, UniProt Q9NSY1); conditions: read-out: %Inhibition by 10 μM SPA70
T2 construct: purchased DiscoverX (Ambit Biosciences) KINOMEscan
In short: as §1

BMPR1A = target: T3, BMPR1A (Homo sapiens, UniProt P36894); conditions: read-out: %Inhibition by 10 μM SPA70
T3 construct: purchased DiscoverX (Ambit Biosciences) KINOMEscan
In short: as §1

BRAF = target: T4, BRAF (Homo sapiens, UniProt P15056); conditions: read-out: %Inhibition by 10 μM SPA70
T4 construct: purchased DiscoverX (Ambit Biosciences) KINOMEscan
In short: as §1

CAMK1D = target: T5, CAMK1D (Homo sapiens, UniProt Q8IU85); conditions: read-out: %Inhibition by 10 μM SPA70
T5 construct: purchased DiscoverX (Ambit Biosciences) KINOMEscan
In short: as §1

CASK = target: T6, CASK (Homo sapiens, UniProt O14936); conditions: read-out: %Inhibition by 10 μM SPA70
T6 construct: purchased DiscoverX (Ambit Biosciences) KINOMEscan
In short: as §1

CDKL1 = target: T7, CDKL1 (Homo sapiens, UniProt Q00532); conditions: read-out: %Inhibition by 10 μM SPA70
T7 construct: purchased DiscoverX (Ambit Biosciences) KINOMEscan
In short: as §1

CHEK2 = target: T8, CHEK2 (Homo sapiens, UniProt O96017); conditions: read-out: %Inhibition by 10 μM SPA70
T8 construct: purchased DiscoverX (Ambit Biosciences) KINOMEscan
In short: as §1

CLK3 = target: T9, CLK3 (Homo sapiens, UniProt P49761); conditions: read-out: %Inhibition by 10 μM SPA70
T9 construct: purchased DiscoverX (Ambit Biosciences) KINOMEscan
In short: as §1

CSNK1A1 = target: T10, CSNK1A1 (Homo sapiens, UniProt P48729); conditions: read-out: %Inhibition by 10 μM SPA70
T10 construct: purchased DiscoverX (Ambit Biosciences) KINOMEscan
In short: as §1

CSNK1A1L = target: T11, CSNK1A1L (Homo sapiens, UniProt Q8N752); conditions: read-out: %Inhibition by 10 μM SPA70
T11 construct: purchased DiscoverX (Ambit Biosciences) KINOMEscan
In short: as §1

CSNK1D = target: T12, CSNK1D (Homo sapiens, UniProt P48730); conditions: read-out: %Inhibition by 10 μM SPA70
T12 construct: purchased DiscoverX (Ambit Biosciences) KINOMEscan
In short: as §1

CSNK1E = target: T13, CSNK1E (Homo sapiens, UniProt P49674); conditions: read-out: %Inhibition by 10 μM SPA70
T13 construct: purchased DiscoverX (Ambit Biosciences) KINOMEscan
In short: as §1

EPHA3 = target: T14, EPHA3 (Homo sapiens, UniProt P29320); conditions: read-out: %Inhibition by 10 μM SPA70
T14 construct: purchased DiscoverX (Ambit Biosciences) KINOMEscan
In short: as §1

EPHB2 = target: T15, EPHB2 (Homo sapiens, UniProt P29323)
T15 construct: purchased DiscoverX (Ambit Biosciences) KINOMEscan
In short: as §1

ERK5 = target: T16, ERK5 (Homo sapiens, UniProt Q13164); conditions: read-out: %Inhibition by 10 μM SPA70
T16 construct: purchased DiscoverX (Ambit Biosciences) KINOMEscan
In short: as §1

FER = target: T17, FER (Homo sapiens, UniProt P16591); conditions: read-out: %Inhibition by 10 μM SPA70
T17 construct: purchased DiscoverX (Ambit Biosciences) KINOMEscan
In short: as §1

FGR = target: T18, FGR (Homo sapiens, UniProt P09769); conditions: read-out: %Inhibition by 10 μM SPA70
T18 construct: purchased DiscoverX (Ambit Biosciences) KINOMEscan
In short: as §1

HIPK3 = target: T19, HIPK3 (Homo sapiens, UniProt Q9H422); conditions: read-out: %Inhibition by 10 μM SPA70
T19 construct: purchased DiscoverX (Ambit Biosciences) KINOMEscan
In short: as §1

HIPK4 = target: T20, HIPK4 (Homo sapiens, UniProt Q8NE63); conditions: read-out: %Inhibition by 10 μM SPA70
T20 construct: purchased DiscoverX (Ambit Biosciences) KINOMEscan
In short: as §1

HPK1 = target: T21, HPK1 (Homo sapiens, UniProt Q92918); conditions: read-out: %Inhibition by 10 μM SPA70
T21 construct: purchased DiscoverX (Ambit Biosciences) KINOMEscan
In short: as §1

HUNK = target: T22, HUNK (Homo sapiens, UniProt P57058); conditions: read-out: %Inhibition by 10 μM SPA70
T22 construct: purchased DiscoverX (Ambit Biosciences) KINOMEscan
In short: as §1

IRAK3 = target: T23, IRAK3 (Homo sapiens, UniProt Q9Y616); conditions: read-out: %Inhibition by 10 μM SPA70
T23 construct: purchased DiscoverX (Ambit Biosciences) KINOMEscan
In short: as §1

JNK1 = target: T24, JNK1 (Homo sapiens, UniProt P45983)
T24 construct: purchased DiscoverX (Ambit Biosciences) KINOMEscan
In short: as §1

LATS1 = target: T25, LATS1 (Homo sapiens, UniProt O95835); conditions: read-out: %Inhibition by 10 μM SPA70
T25 construct: purchased DiscoverX (Ambit Biosciences) KINOMEscan
In short: as §1

MAP3K3 = target: T26, MAP3K3 (Homo sapiens, UniProt Q99759); conditions: read-out: %Inhibition by 10 μM SPA70
T26 construct: purchased DiscoverX (Ambit Biosciences) KINOMEscan
In short: as §1

MAP4K4 = target: T27, MAP4K4 (Homo sapiens, UniProt O95819); conditions: read-out: %Inhibition by 10 μM SPA70
T27 construct: purchased DiscoverX (Ambit Biosciences) KINOMEscan
In short: as §1

MET = target: T28, MET (Homo sapiens, UniProt P08581)
T28 construct: purchased DiscoverX (Ambit Biosciences) KINOMEscan
In short: as §1

MKNK2 = target: T29, MKNK2 (Homo sapiens, UniProt Q9HBH9); conditions: read-out: %Inhibition by 10 μM SPA70
T29 construct: purchased DiscoverX (Ambit Biosciences) KINOMEscan
In short: as §1

MTOR = target: T30, MTOR (Homo sapiens, UniProt P42345); conditions: read-out: %Inhibition by 10 μM SPA70
T30 construct: purchased DiscoverX (Ambit Biosciences) KINOMEscan
In short: as §1

NEK1 = target: T31, NEK1 (Homo sapiens, UniProt Q96PY6); conditions: read-out: %Inhibition by 10 μM SPA70
T31 construct: purchased DiscoverX (Ambit Biosciences) KINOMEscan
In short: as §1

PAK2 = target: T32, PAK2 (Homo sapiens, UniProt Q13177); conditions: read-out: %Inhibition by 10 μM SPA70
T32 construct: purchased DiscoverX (Ambit Biosciences) KINOMEscan
In short: as §1

PCTK1 = target: T33, PCTK1 (Homo sapiens, UniProt Q00536); conditions: read-out: %Inhibition by 10 μM SPA70
T33 construct: purchased DiscoverX (Ambit Biosciences) KINOMEscan
In short: as §1

PIK3C2B = target: T34, PIK3C2B (Homo sapiens, UniProt O00750); conditions: read-out: %Inhibition by 10 μM SPA70
T34 construct: purchased DiscoverX (Ambit Biosciences) KINOMEscan
In short: as §1

PIK3CB = target: T35, PIK3CB (Homo sapiens, UniProt P42338); conditions: read-out: %Inhibition by 10 μM SPA70
T35 construct: purchased DiscoverX (Ambit Biosciences) KINOMEscan
In short: as §1

PIK3CD = target: T36, PIK3CD (Homo sapiens, UniProt O00329); conditions: read-out: %Inhibition by 10 μM SPA70
T36 construct: purchased DiscoverX (Ambit Biosciences) KINOMEscan
In short: as §1

PIK3CG = target: T37, PIK3CG (Homo sapiens, UniProt P48736); conditions: read-out: %Inhibition by 10 μM SPA70
T37 construct: purchased DiscoverX (Ambit Biosciences) KINOMEscan
In short: as §1

PIP5K2C = target: T38, PIP5K2C (Homo sapiens, UniProt Q8TBX8); conditions: read-out: %Inhibition by 10 μM SPA70
T38 construct: purchased DiscoverX (Ambit Biosciences) KINOMEscan
In short: as §1

PKMYT1 = target: T39, PKMYT1 (Homo sapiens, UniProt Q99640)
T39 construct: purchased DiscoverX (Ambit Biosciences) KINOMEscan
In short: as §1

RIOK2 = target: T40, RIOK2 (Homo sapiens, UniProt Q9BVS4); conditions: read-out: %Inhibition by 10 μM SPA70
T40 construct: purchased DiscoverX (Ambit Biosciences) KINOMEscan
In short: as §1

TRPM6 = target: T41, TRPM6 (Homo sapiens, UniProt Q9BX84); conditions: read-out: %Inhibition by 10 μM SPA70
T41 construct: purchased DiscoverX (Ambit Biosciences) KINOMEscan
In short: as §1

WEE1 = target: T42, WEE1 (Homo sapiens, UniProt P30291); conditions: read-out: %Inhibition by 10 μM SPA70
T42 construct: purchased DiscoverX (Ambit Biosciences) KINOMEscan
In short: as §1

p38-delta = target: T43, p38-delta (Homo sapiens, UniProt O15264); conditions: read-out: %Inhibition by 10 μM SPA70
T43 construct: purchased DiscoverX (Ambit Biosciences) KINOMEscan
In short: as §1

T27 sequence (O95819 whole entry): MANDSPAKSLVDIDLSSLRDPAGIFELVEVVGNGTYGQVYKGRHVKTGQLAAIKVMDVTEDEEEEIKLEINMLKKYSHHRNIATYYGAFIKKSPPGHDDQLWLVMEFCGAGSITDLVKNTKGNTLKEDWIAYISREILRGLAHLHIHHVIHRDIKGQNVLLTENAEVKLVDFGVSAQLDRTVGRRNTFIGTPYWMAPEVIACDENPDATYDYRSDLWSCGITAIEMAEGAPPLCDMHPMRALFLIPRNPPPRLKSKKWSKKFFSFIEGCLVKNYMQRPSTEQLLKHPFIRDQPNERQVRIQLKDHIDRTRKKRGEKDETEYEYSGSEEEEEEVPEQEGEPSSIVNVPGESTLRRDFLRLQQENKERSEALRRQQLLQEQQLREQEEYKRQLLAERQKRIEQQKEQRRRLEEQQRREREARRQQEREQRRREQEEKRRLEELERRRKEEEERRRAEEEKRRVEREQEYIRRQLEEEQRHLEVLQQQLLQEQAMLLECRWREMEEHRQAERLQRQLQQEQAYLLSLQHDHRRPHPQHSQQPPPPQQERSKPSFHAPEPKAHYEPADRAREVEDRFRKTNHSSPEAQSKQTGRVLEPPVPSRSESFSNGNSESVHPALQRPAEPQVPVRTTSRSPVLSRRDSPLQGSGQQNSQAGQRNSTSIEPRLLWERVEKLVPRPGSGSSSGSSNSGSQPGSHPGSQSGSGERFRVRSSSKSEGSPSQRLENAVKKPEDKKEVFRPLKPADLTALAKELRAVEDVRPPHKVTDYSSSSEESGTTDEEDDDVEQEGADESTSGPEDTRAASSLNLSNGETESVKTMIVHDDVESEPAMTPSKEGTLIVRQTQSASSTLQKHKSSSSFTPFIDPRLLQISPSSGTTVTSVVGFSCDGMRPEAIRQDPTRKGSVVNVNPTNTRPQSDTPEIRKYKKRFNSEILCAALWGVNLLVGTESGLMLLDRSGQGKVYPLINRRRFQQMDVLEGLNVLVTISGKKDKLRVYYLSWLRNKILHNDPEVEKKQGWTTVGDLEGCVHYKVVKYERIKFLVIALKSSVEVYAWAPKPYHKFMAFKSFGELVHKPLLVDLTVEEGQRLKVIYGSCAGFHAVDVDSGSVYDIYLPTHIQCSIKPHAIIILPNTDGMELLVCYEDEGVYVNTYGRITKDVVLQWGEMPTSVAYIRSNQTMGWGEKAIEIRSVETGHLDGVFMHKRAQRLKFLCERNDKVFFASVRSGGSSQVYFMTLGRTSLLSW
T41 sequence (Q9BX84 whole entry): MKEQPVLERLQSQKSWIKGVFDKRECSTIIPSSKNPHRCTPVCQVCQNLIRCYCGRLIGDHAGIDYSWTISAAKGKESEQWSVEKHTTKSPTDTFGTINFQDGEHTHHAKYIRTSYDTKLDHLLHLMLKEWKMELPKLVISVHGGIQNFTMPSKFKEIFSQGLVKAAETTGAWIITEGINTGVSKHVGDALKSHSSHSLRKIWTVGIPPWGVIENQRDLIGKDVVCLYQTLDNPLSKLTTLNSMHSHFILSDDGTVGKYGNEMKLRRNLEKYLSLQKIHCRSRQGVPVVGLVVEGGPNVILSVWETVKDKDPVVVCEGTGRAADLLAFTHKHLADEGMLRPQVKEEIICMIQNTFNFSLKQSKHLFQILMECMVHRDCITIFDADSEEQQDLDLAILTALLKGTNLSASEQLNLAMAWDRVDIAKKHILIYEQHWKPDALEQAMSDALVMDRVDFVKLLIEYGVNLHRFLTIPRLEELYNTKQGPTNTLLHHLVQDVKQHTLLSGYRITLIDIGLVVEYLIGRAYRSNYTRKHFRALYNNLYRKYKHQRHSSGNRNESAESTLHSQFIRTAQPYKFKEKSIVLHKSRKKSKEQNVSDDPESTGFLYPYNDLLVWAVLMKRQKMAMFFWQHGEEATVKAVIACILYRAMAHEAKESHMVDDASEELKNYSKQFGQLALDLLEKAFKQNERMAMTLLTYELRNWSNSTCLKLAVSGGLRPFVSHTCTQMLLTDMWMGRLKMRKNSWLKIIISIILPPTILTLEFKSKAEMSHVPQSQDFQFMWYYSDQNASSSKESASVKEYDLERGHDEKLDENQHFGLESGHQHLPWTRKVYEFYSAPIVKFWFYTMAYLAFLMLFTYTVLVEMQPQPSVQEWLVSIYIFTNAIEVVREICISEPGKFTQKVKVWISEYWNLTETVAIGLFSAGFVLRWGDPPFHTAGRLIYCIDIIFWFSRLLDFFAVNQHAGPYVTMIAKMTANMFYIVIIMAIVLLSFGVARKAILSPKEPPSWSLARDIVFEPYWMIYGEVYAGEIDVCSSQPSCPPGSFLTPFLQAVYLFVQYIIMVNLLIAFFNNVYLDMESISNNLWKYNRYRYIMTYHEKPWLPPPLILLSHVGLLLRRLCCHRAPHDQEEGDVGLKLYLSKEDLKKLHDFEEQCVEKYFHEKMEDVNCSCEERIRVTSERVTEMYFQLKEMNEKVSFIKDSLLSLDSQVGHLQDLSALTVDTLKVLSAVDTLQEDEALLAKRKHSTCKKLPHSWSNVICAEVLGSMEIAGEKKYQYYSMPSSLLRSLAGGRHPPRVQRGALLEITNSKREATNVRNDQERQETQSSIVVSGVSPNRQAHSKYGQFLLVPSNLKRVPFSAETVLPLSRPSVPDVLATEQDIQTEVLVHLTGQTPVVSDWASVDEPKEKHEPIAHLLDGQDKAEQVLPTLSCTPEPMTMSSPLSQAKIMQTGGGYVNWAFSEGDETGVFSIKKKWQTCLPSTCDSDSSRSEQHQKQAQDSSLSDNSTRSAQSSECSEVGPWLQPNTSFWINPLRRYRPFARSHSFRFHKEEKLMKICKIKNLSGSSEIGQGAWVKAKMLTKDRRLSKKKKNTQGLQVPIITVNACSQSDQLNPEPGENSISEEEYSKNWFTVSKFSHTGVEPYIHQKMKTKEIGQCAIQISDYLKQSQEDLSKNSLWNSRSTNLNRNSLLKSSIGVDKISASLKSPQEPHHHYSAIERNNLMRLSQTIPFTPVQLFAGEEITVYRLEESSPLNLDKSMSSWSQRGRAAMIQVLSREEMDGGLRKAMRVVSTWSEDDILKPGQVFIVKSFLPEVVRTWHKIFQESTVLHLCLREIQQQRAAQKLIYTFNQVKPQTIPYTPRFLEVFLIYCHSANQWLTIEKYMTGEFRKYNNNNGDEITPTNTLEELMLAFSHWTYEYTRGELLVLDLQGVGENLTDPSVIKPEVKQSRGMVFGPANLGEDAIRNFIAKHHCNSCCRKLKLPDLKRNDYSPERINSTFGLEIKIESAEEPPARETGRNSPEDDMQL
T31 sequence (Q96PY6 whole entry): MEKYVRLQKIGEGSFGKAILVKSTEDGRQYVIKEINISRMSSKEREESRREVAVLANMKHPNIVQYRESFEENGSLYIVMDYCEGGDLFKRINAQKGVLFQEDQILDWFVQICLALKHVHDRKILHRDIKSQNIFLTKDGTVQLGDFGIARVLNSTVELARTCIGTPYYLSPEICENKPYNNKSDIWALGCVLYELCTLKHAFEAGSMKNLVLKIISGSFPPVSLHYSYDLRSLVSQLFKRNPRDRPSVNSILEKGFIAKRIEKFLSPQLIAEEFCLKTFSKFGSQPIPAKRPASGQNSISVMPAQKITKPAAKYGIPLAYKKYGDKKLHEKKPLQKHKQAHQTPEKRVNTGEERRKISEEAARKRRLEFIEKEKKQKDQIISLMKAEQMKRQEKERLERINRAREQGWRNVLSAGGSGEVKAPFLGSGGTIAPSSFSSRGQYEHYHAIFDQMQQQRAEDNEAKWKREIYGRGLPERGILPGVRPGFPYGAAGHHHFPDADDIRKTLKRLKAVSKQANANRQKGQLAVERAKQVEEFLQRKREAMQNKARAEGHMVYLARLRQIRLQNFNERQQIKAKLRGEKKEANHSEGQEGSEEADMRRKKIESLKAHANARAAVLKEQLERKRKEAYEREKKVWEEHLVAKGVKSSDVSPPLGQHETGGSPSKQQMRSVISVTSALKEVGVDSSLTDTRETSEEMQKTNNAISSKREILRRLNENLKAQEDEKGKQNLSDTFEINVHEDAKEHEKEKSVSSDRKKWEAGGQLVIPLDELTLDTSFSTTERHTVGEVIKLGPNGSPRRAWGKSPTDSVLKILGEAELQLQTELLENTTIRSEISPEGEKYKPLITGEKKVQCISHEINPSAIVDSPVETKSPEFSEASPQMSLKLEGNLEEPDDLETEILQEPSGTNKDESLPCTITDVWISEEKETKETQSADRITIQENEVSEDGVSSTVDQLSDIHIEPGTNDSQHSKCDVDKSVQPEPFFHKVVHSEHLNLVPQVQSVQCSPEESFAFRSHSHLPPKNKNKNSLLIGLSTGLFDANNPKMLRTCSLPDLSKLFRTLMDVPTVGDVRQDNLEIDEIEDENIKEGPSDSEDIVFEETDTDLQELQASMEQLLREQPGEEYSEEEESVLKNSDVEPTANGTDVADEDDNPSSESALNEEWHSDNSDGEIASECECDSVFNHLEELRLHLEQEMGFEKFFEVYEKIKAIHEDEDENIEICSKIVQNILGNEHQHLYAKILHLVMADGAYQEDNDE
T39 sequence (Q99640 whole entry): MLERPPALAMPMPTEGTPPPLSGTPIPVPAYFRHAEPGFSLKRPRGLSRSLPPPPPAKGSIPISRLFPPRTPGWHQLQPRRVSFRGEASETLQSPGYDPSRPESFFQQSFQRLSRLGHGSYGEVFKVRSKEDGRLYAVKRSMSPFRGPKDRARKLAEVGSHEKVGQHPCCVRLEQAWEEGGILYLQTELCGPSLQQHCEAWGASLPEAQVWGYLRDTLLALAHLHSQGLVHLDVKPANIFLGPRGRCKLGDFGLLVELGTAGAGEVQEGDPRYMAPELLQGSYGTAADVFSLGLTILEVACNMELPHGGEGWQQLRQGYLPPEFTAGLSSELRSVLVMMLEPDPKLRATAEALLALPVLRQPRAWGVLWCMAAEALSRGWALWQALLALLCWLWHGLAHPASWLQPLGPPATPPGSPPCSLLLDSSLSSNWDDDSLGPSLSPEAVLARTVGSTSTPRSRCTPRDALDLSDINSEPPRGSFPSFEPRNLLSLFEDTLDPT

## COc1ccc(OC)c(-n2nnc(S(=O)(=O)c3ccc(C(C)(C)C)cc3)c2C)c1 [SPA70]
AURKB
  inhibition at 10 µM: 8%
BIKE
  inhibition at 10 µM: 35%
BMPR1A
  inhibition at 10 µM: 2%
BRAF
  inhibition at 10 µM: 0%
CAMK1D
  inhibition at 10 µM: 20%
CASK
  inhibition at 10 µM: 9%
CDKL1
  inhibition at 10 µM: 9%
CHEK2
  inhibition at 10 µM: 23%
CLK3
  inhibition at 10 µM: 0%
CSNK1A1
  inhibition at 10 µM: 1%
CSNK1A1L
  inhibition at 10 µM: 0%
CSNK1D
  inhibition at 10 µM: 3%
CSNK1E
  inhibition at 10 µM: 0%
EPHA3
  inhibition at 10 µM: 26%
EPHB2
  %Inhibition by 10 μM SPA70: 0%
ERK5
  inhibition at 10 µM: 0%
FER
  inhibition at 10 µM: 19%
FGR
  inhibition at 10 µM: 6%
HIPK3
  inhibition at 10 µM: 10%
HIPK4
  inhibition at 10 µM: 0%
HPK1
  inhibition at 10 µM: 1%
HUNK
  inhibition at 10 µM: 15%
IRAK3
  inhibition at 10 µM: 15%
JNK1
  %Inhibition by 10 μM SPA70: 9%
LATS1
  inhibition at 10 µM: 0%
MAP3K3
  inhibition at 10 µM: 16%
MAP4K4
  inhibition at 10 µM: 0%
MET
  %Inhibition by 10 μM SPA70: 0%
MKNK2
  inhibition at 10 µM: 6%
MTOR
  inhibition at 10 µM: 0%
NEK1
  inhibition at 10 µM: 0%
PAK2
  inhibition at 10 µM: 0%
PCTK1
  inhibition at 10 µM: 4%
PIK3C2B
  inhibition at 10 µM: 0%
PIK3CB
  inhibition at 10 µM: 8%
PIK3CD
  inhibition at 10 µM: 0%
PIK3CG
  inhibition at 10 µM: 9%
PIP5K2C
  inhibition at 10 µM: 10%
PKMYT1
  %Inhibition by 10 μM SPA70: 38%
RIOK2
  inhibition at 10 µM: 0%
TRPM6
  inhibition at 10 µM: 31%
WEE1
  inhibition at 10 µM: 0%
p38-delta
  inhibition at 10 µM: 21%

— PMC5622171 (Nature Communications, 2017)
